For 4 compounds, MIC results are on record in patent US7247634B2, “Rifamycin derivatives effective against drug-resistant microbes” (Cumbre Pharmaceuticals Inc., priority 2004, dated 2007).

Type in all cases: cell-based
Assay [1] has as its system Streptococcus pyogenes ATCC19615. As to the kind of experiment: MIC, microbroth dilution (NCCLS). The conditions noted are these: rifS strain, THY Broth, 37° C., read-out: Antimicrobial activity (MIC). A general note: In broth dilution the organism is exposed to a series of concentrations in liquid medium.
The test system of assay [2] is Escherichia coli ATCC25922. As to the kind of experiment: MIC, microbroth dilution (NCCLS). The following applies: rifS strain, Cation-Adjusted Mueller-Hinton Broth, 37° C., read-out: Antimicrobial activity (MIC).
The test system of assay [3] is Staphylococcus epidermidis ATCC12228. As to the kind of experiment: MIC, microbroth dilution (NCCLS). The following applies: rifS strain, Cation-Adjusted Mueller-Hinton Broth, 37° C., read-out: Antimicrobial activity (MIC).
In assay [4] the test system is Haemophilus influenzae ATCC10211. As to the kind of experiment: MIC, microbroth dilution (NCCLS). The conditions noted are these: rifS strain, BHI Broth with NAD and hematin, 37° C., read-out: Antimicrobial activity (MIC).
For assay [5], the system named is Staphylococcus aureus EN1252a gyrA^S84L grlA^S80F. As to the kind of experiment: microbe, parasite or virus in culture. The following applies: read-out: Antimicrobial activity (MIC). How it is done:
(§1) Representative compounds were assayed for antimicrobial activity as follows: Minimum Inhibitory Concentrations (“MICs”) were determined by the microbroth dilution method as per NCCLS guidelines (National Committee for Clinical Laboratory Standards. 2000. Methods for dilution antimicrobial susceptibility tests for bacteria that grow aerobically, 5th ed. M7-A5. National Committee for Clinical Laboratory Standards, Wayne, Pa.), except that all growth incubations were conducted at 37° C. Bacterial cultures were tested in the following bacteriological media: S. aureus, S. epidermidis, and E. coli in Cation-Adjusted Mueller-Hinton Broth, S. pneumoniae in THY Broth supplemented with 1 mg/mL catalase under 5% CO2 atmosphere, S. pyogenes in THY Broth, E. faecalis in BHI Broth, H. influenzae in BHI Broth supplemented with 0.75 μL of 1 mg/mL NAD and 150 μL of 1 mg/ml hematin per 5 mL, and M. smegmatis in Middlebrook Broth plus ADC Enrichment.
(§2) S. aureus ATCC 29213 RpoB^H418Y is a rifampin-resistant strain with a mutation in RNA polymerase, the biological target of rifamycin antibiotics. […] S. aureus EN1252a gyrA^S84L grlA^S80F is a quinolone-resistant strain due to double mutations to DNA gyrase and topoisomerase IV, the two biological targets for quinolone antibiotics.

Assay [6] relates to Staphylococcus aureus ATCC29213 rpoB^H418Y. As to the kind of experiment: microbe, parasite or virus in culture. The conditions noted are these: ATCC29213, read-out: Antimicrobial activity (MIC). How it is done: as §1, §2
The test system of assay [7] is Staphylococcus aureus ATCC29213 rpoB^D417Y. As to the kind of experiment: microbe, parasite or virus in culture. The following applies: ATCC29213, read-out: Antimicrobial activity (MIC). The method, then:
as §1, §2

In assay [8] the test system is Mycobacterium smegmatis ATCC700084. As to the kind of experiment: MIC, microbroth dilution (NCCLS). The conditions noted are these: Mycolicibacterium smegmatis, rifS strain, Middlebrook Broth plus ADC Enrichment, 37° C., read-out: Antimicrobial activity (MIC).
Assay [9] relates to Enterococcus faecalis ATCC29212. As to the kind of experiment: MIC, microbroth dilution (NCCLS). The following applies: rifS strain, BHI Broth, 37° C., read-out: Antimicrobial activity (MIC).
In assay [10] the test system is Streptococcus pneumoniae ATCC6303. As to the kind of experiment: MIC, microbroth dilution (NCCLS). The following applies: rifS strain, THY Broth with 1 mg/mL catalase, 5% CO2, 37° C., read-out: Antimicrobial activity (MIC).
The test system of assay [11] is Staphylococcus aureus ATCC29213. As to the kind of experiment: MIC, microbroth dilution (NCCLS). The following applies: rifS strain, Cation-Adjusted Mueller-Hinton Broth, 37° C., read-out: Antimicrobial activity (MIC).

SMILES strings stand for the structures. Values after ≈ are worked out from the molar mass of the structure shown.

For `CO[C@H]1/C=C/O[C@@]2(C)Oc3c(C)c(O)c4c(c3C2=O)C(=O)C(N2CCN(c3cc5c(cc3F)c(=O)c(C(=O)O)cn5C3CC3)CC2)=C(NC(=O)/C(C)=C\C=C\[C@H](C)[C@H](O)[C@@H](C)[C@@H](O)[C@@H](C)[C@H](OC(C)=O)[C@@H]1C)C4=O` [Example 4, 3-[4-(3-Carboxy-1-cyclopropyl-6-fluoro-4-oxo-1,4-dihydroquinolin-7-yl)piperazin-1-yl]rifamycin S], the MIC in assay [1] lay in the range of 0.008 to 0.063 µg/mL (≈ 0.0078 to 0.0615 µM); in [2] it was 0.125 to 8 µg/mL (≈ 0.122 to 7.8 µM); in assay [3], 0.008 to 0.063 µg/mL (≈ 0.0078 to 0.0615 µM); in assay [4] it was 0.125 to 2 µg/mL (≈ 0.122 to 1.95 µM); in assay [5] it was 0.004 to 0.5 µg/mL (≈ 0.0039 to 0.488 µM); in [6] it was 0.06 to 16 µg/mL (≈ 0.0585 to 15.6 µM). Also, the MIC in assay [7] lay within 0.06 to 32 µg/mL (≈ 0.0585 to 31.2 µM); in assay [8], 0.5 to 64 µg/mL; in [9] it was 2 to 32 µg/mL (≈ 1.95 to 31.2 µM); in [10], 0.008 to 0.125 µg/mL (≈ 0.0078 to 0.122 µM); in assay [11], 0.004 to 0.5 µg/mL (≈ 0.0039 to 0.488 µM).
For the compound `CO[C@H]1/C=C/O[C@@]2(C)Oc3c(C)c(O)c4c(c3C2=O)C(=O)C(N2CCN(c3nc5c(cc3F)c(=O)c(C(=O)O)cn5-c3ccc(F)cc3F)CC2)=C(NC(=O)/C(C)=C\C=C\[C@H](C)[C@H](O)[C@@H](C)[C@@H](O)[C@@H](C)[C@H](OC(C)=O)[C@@H]1C)C4=O` [Example 5, 3-[4-(3-Carboxy-1-(2,4-difluorophenyl)-6-fluoro-4-oxo-1,4-dihydronaphthyridin-7-yl)piperazin-1-yl]rifamycin S], the MIC in [1] lay in the range of 0.008 to 0.063 µg/mL (≈ 0.00729 to 0.0574 µM); in assay [2], 0.125 to 8 µg/mL (≈ 0.114 to 7.29 µM); in [3], 0.008 to 0.063 µg/mL (≈ 0.00729 to 0.0574 µM); in assay [4] it was 0.125 to 2 µg/mL (≈ 0.114 to 1.82 µM); in [5] it was 0.004 to 0.5 µg/mL (≈ 0.00364 to 0.455 µM); in assay [6] it was 0.06 to 16 µg/mL (≈ 0.0546 to 14.6 µM). In addition, the MIC is 0.06 to 32 µg/mL (≈ 0.0546 to 29.1 µM) in assay [7]; 0.5 to 64 µg/mL in assay [8]; 2 to 32 µg/mL (≈ 1.82 to 29.1 µM) in assay [9]; 0.008 to 0.125 µg/mL (≈ 0.00729 to 0.114 µM) in assay [10]; 0.004 to 0.5 µg/mL (≈ 0.00364 to 0.455 µM) in assay [11].
In the case of `CO[C@H]1/C=C/O[C@@]2(C)Oc3c(C)c(O)c4c(c3C2=O)C(=O)C(N2CCC(CCCC3CCN(c5nc6c(cc5F)c(=O)c(C(=O)O)cn6-c5ccc(F)cc5F)CC3)CC2)=C(NC(=O)/C(C)=C\C=C\[C@H](C)[C@H](O)[C@@H](C)[C@@H](O)[C@@H](C)[C@H](OC(C)=O)[C@@H]1C)C4=O` [Example 6, 3-[4-[3-[1-[3-Carboxy-1-(2,4-difluorophenyl)-6-fluoro-4-oxo-1,4-dihydronaphthyridin-7-yl]piperidin-4-yl]propyl]piperidin-1-yl]rifamycin S], the MIC in assay [1] lay within 0.008 to 0.063 µg/mL (≈ 0.00654 to 0.0515 µM); in assay [2] it was 0.125 to 8 µg/mL (≈ 0.102 to 6.54 µM); in [3], 0.008 to 0.063 µg/mL (≈ 0.00654 to 0.0515 µM); in [4] it was 0.125 to 2 µg/mL (≈ 0.102 to 1.64 µM); in assay [5], 0.004 to 0.5 µg/mL (≈ 0.00327 to 0.409 µM); in [6] it was 0.06 to 16 µg/mL (≈ 0.0491 to 13.1 µM). The MIC in [7] was in the range of 0.06 to 32 µg/mL (≈ 0.0491 to 26.2 µM); in assay [8], 0.5 to 64 µg/mL; in assay [9] it was 2 to 32 µg/mL (≈ 1.64 to 26.2 µM); in assay [10] it was 0.008 to 0.125 µg/mL (≈ 0.00654 to 0.102 µM); in assay [11], 0.004 to 0.5 µg/mL (≈ 0.00327 to 0.409 µM).
As for `CO[C@H]1/C=C/O[C@@]2(C)Oc3c(C)c(O)c4c(c3C2=O)C(=O)C(N[C@@H]2CCN(c3cc5c(cc3F)c(=O)c(C(=O)O)cn5C3CC3)C2)=C(NC(=O)/C(C)=C\C=C\[C@H](C)[C@H](O)[C@@H](C)[C@@H](O)[C@@H](C)[C@H](OC(C)=O)[C@@H]1C)C4=O` [Example 8, (R)-3-[1-(3-Carboxy-1-cyclopropyl-6-fluoro-4-oxo-1,4-dihydroquinolin-7-yl)-pyrrolidin-3-ylamino]rifamycin S], the MIC in assay [1] lay in the range of 0.008 to 0.063 µg/mL (≈ 0.0078 to 0.0615 µM); in [2], 0.125 to 8 µg/mL (≈ 0.122 to 7.8 µM); in [3], 0.008 to 0.063 µg/mL (≈ 0.0078 to 0.0615 µM); in [4] it was 0.125 to 2 µg/mL (≈ 0.122 to 1.95 µM); in assay [5], 0.004 to 0.5 µg/mL (≈ 0.0039 to 0.488 µM); in assay [6] it was 0.06 to 16 µg/mL (≈ 0.0585 to 15.6 µM). The MIC in assay [7] is 0.06 to 32 µg/mL (≈ 0.0585 to 31.2 µM); in assay [8] it was 0.5 to 64 µg/mL; in [9], 2 to 32 µg/mL (≈ 1.95 to 31.2 µM); in assay [10], 0.008 to 0.125 µg/mL (≈ 0.0078 to 0.122 µM); in [11] it was 0.004 to 0.5 µg/mL (≈ 0.0039 to 0.488 µM).
